Tested on: IgA autoantibodies of patients with acute HSP
Assay: ELISA detection of IgA anti-β2-GPI-derived peptides antibodies
Type: binding, human
Conditions: for binding between IgA derived from 7 patients with acute HSP and the synthetic peptide: IgA1-7 at 10 (g/ml), n=7, OD higher than positive control (β2-GPI) regarded as significant, FIG. 8; for plasma level of IgA anti-β2-GPI peptide antibodies in children with acute HSP compared with healthy subjects: plasma 1:50, peptide coated at 10 (g/ml), expressed as OD, p<0.0001
Protocol: Circulating IgA immunoglobulins were isolated from 7 plasma samples positive for both CL and β2GPI by use of a commercial kit, Immobilized Jacalin (PIERCE, USA, USA), which isolates serum-circulating IgA1 by galactose-binding lectin.
Briefly, 96-well high binding plates (Costar, Cambridge, Mass., USA) are coated with human β-2-GPI peptides 1-15 at a concentration of 10 (g/ml in Tris-buffered saline (TBS, 0.05 M Tris-HCl and NaCl, PH 7.5). After incubating overnight at 4° C., plates are blocked with TBS containing 0.3% gelatin. Then, plasma samples (1:50 for IgA), and IgA fraction from patients (indicated concentrations) in TBS/0.1% gelatin were distributed into wells in duplicate and incubated for 1.5 hours at room temperature. A pooled normal human IgA (Jackson ImmunoResearch, West Grove, Pa., USA) will be used as negative controls at the same concentrations. After washing with TBS, bound human […] were detected with HRP-conjugated goat anti-human IgA (BioSource International, Camarillo, Calif., USA), and the peroxidase substrate tetramethylbenzidine (Kirkegaard & Perry Laboratories, Gaithersburg, Md., USA). Results were read at a wavelength of 450 nm against a background of 650 nm with a Thermomax plate reader (Molecular Devices Inc., Sunnyvale, Calif., USA).

Substance	binding between IgA derived from 7 patients with acute HSP and the synthetic peptide	plasma level of IgA anti-β2-GPI peptide antibodies in children with acute HSP compared with healthy subjects (FIGS. 7, 8 and 9)	binding strength among the synthetic peptides (IgA anti-peptide antibodies, children with acute HSP, FIGS. 7, 8 and 9)
H2N-KATFGCHDGYSLDGPEEIECTKLGNWSAMPSCKASCKVPVKKATVVYQGERVKIQEK-COOH (H-KATFGCHDGYSLDGPEEIECTKLGNWSAMPSCKASCKVPVKKATVVYQGERVKIQEK-OH; cysteine pairing not given here; listed as Homo sapiens) [P11, synthetic β2-GPI-derived peptide, residues 229-285]	significant binding	significantly higher	–
H2N-KPGYVSRGGMRKFICPLTGLWPINTLK-COOH (H-KPGYVSRGGMRKFICPLTGLWPINTLK-OH; listed as Homo sapiens) [P3, synthetic β2-GPI-derived peptide, residues 52-78]	significant binding	significantly higher	most significant
H2N-RYTTFEYPNTISFSCNTGFYLNGADSAK-COOH (H-RYTTFEYPNTISFSCNTGFYLNGADSAK-OH; listed as Homo sapiens) [P5, synthetic β2-GPI-derived peptide, residues 96-123]	significant binding	significantly higher	–
H2N-KWSPELPVCAPIICPPPSIPTFATLRVYK-COOH (H-KWSPELPVCAPIICPPPSIPTFATLRVYK-OH; cysteine pairing not given here; listed as Homo sapiens) [P7, synthetic β2-GPI-derived peptide, residues 129-157]	significant binding	significantly higher	–
H2N-FKNGMLHGDKVSFFCKNKEK-COOH (H-FKNGMLHGDKVSFFCKNKEK-OH; listed as Homo sapiens) [P12, synthetic β2-GPI-derived peptide, residues 286-305]	significant binding	significantly higher	–
